What was measured:
Abeta secretion = settings: HEK/APPswe cell cultures, at concentrations below 10 microM
Description: HEK/APPswe cells are plated in microtiter plates precoated with 10 μg/ml poly-D-lysine at 12,000 cells/well in 100 μl/well DMEM medium supplemented with 10% FCS, 0.25 mg/ml G418 sulfate, 1% penicillin streptomycin. The following day, supernatant is replaced with 90 μl/well of fresh medium and 10 μl/well of compound diluted in culture medium are added. Two types of control wells are used: cell culture medium without cells plus 10 μl/well of all compound dilutions (background signals) and cell culture medium from untreated cells (positive control). 24 hours later after compound addition, conditioned medium is collected and Aβ levels determined by a specific sandwich ELISA.
For the sandwich ELISA, the maxisorp microtiterplates are coated overnight at 4° C. with 100 μl/well of the monoclonal antibody 25H10 diluted 1:1000 in PB for Aβ40 detection or monoclonal antibody B10E7 diluted 1:2750 for detection of Aβ42. […] After 1 hour incubation at room temperature wells are washed as described above and alkaline phosphatase activity is determined by adding 100 μl/well of diethanolamine buffer, pH 9.8 (100 mM diethanolamine, 1 mM MgCl2, pH adjusted to 9.8 with 2 M HCl) containing the chemiluminescent CSPD substrate (25 mM stock solution diluted 1:416) and the enhancer Emerald II (diluted 1:10). […] Samples are measured in triplicate. […]

HEK/APPswe cells = settings: HEK/APPswe cell cultures, at concentrations below 10 microM
Description: To determine cytotoxicity, cells are tested by the MTS colorimetric kit performed essentially according to the manufacturer's specifications (Promega, #G5430X). After collecting the conditioned medium for the sandwich ELISA, the rest of the conditioned medium is removed completely and replaced with 100 μl/well culture medium containing one fifth of MTS solution prepared as recommended in the kit. After 3 hours incubation at 37° C., absorbance is read at an OD of 490 nm with a reference wavelength set to 630 nm. Values are given as % metabolic rate (n=6). The 0% value is calculated from wells which had no cells, 100% from wells with an untreated cell layer

Cc1cn(-c2cc(NC(=O)c3ccc(C)c(Nc4nccc(-c5cccnc5)n4)c3)cc(C(F)(F)F)c2)cn1 [Example 2, 4-Methyl-N-[3-(4-methyl-imidazol-1-yl)-5-trifluoromethyl-phenyl]-3-(4-pyridin-3-yl-pyrimidin-2-ylamino)-benzamide]
reduction of Abeta secretion in the medium (Abeta secretion): clear reduction
effect on cellular viability (HEK/APPswe cells): without having any effect

— patent US7687512B2, “Use of pyridinyl-pyrimidinylamino-benzamide derivatives for the treatment of amyloid related disorders” (Novartis AG, priority 2003, dated 2010)
